Measurements from US20040132027A1, “Screening method for discovering auxiliary agents promoting endocytosis” (priority 2000, published 2004).

Tested on: yeast cells of the strain RPY10
Assay: Transformation rate of yeast cells incubated with plasmid YEP24, with and without auxiliary agent
Assay type: cell-based, Saccharomyces cerevisiae
Settings: 5 μl chloroquine (100 mM solution) in 1 ml 1M saccharose pH 3.3, 10 μg YEP24, 24 h at 24° C., without chloroquine 0.8
Description: A test method for the quantification of the uptake and the endocytosis transfer was made as follows. […] cells from the logarithmic growth phase of the strain RPY10 (Matα, leu2-3, ura3, his4 ade6 (4×10^7−7×10^7 cells per ml) (Piper, R. C., Whitters, E. A., Stevens, T. H. (1994) Yeast VpsS4p is a Sec 1p-like protein required for the consumption of vacuolar targeted, post-Golgi vesicles. Eur. J. Cell Biol. 65:305-318) were incubated for 24 h with 10 μg of the purified plasmid YEP24 (see: D. Bothstein et al., 1979, Gene 8:17-24), with and without auxiliary agent. The structure of the plasmid is shown in FIG. 1.
Prior to the incubation, the cells were washed with the plasmid with at least twice the same volume of H2O and taken up in 1 ml 1M saccharose (pH 3.3, high concentrations of fermentable sugar), re-suspended with the pipette tip and brought in one 10 ml each falcon tube. […] Both were incubated for 5 min at room temperature.
Then 10 μg DNA from the same DNA preparation were pipetted thereto (in 3-100 μl). The falcon tubes were firmly closed and agitated for 24 hours in a water bath or breeding room at 24° C. (the optimum transformation rate is at 24° C.-28° C). […]
After the incubation, 200-500 cells per plate on YE plates (full medium) were plated out, and the colony-forming units (CFU) were determined. […] After 5 days at 24° C., the CFU were counted and tested by means of PCR. […]

With CCN(CC)CCCC(C)Nc1ccnc2cc(Cl)ccc12 (stereo not shown) [chloroquine] the transformation rate was 10.2 10^−8 transformants/CFU.
